System: 3D7-MR4 trophozoite parasite-infected RBCs
Assay: Metabolomic profiling (hydrophilic metabolite changes, UHPLC-MS)
Type: cell-based, Plasmodium falciparum

For `CC(C)(C)c1ccc2c(c1)CN(Cc1ccc(Cl)cc1)CO2` [MMV000442], the “peptide levels (hemoglobin catabolism signature)” value (10 × IC50^72h, 2.5 hr, trophozoites) was “decreased peptide levels”, the “Log2(fold changes) 1_3-Bisphosphoglyceric acid” value (metabolite 1_3-Bisphosphoglyceric acid, log2 fold change) was 0.0000 and the “Log2(fold changes) 2-Hydroxy-2-methylbutanedioic acid” value (metabolite 2-Hydroxy-2-methylbutanedioic acid, log2 fold change) was 0.0000. For the same molecule, the “Log2(fold changes) 2-Isopropylmalic acid” value (metabolite 2-Isopropylmalic acid, log2 fold change) was 0.0000, the “Log2(fold changes) 2-dehydro-D-gluconate” value (metabolite 2-dehydro-D-gluconate, log2 fold change) was 0.0187 and the “Log2(fold changes) 2-oxo-4-methylthiobutanoate” value (metabolite 2-oxo-4-methylthiobutanoate, log2 fold change) was 0.0000. The “Log2(fold changes) 2_3-Diphosphoglyceric acid” value (metabolite 2_3-Diphosphoglyceric acid, log2 fold change) was 0.0000, the “Log2(fold changes) 3-phosphoglycerate” value (metabolite 3-phosphoglycerate, log2 fold change) was 0.1472 and the “Log2(fold changes) 3-phosphoserine” value (metabolite 3-phosphoserine, log2 fold change) was -0.0388. The “Log2(fold changes) 4-Pyridoxic acid” value (metabolite 4-Pyridoxic acid, log2 fold change) was 0.3454, the “Log2(fold changes) 4-aminobutyrate” value (metabolite 4-aminobutyrate, log2 fold change) was -0.2887 and the “Log2(fold changes) 4-phosphopantetheine” value (metabolite 4-phosphopantetheine, log2 fold change) was 0.0000. The “Log2(fold changes) 4-phosphopantothenate” value (metabolite 4-phosphopantothenate, log2 fold change) was -0.1668, the “Log2(fold changes) 5-aminopentanoic acid” value (metabolite 5-aminopentanoic acid, log2 fold change) was -0.5922 and the “Log2(fold changes) 5-methyl-THF” value (metabolite 5-methyl-THF, log2 fold change) was 0.0000. The “Log2(fold changes) 5-phosphoribosyl-1-pyrophosphate” value (metabolite 5-phosphoribosyl-1-pyrophosphate, log2 fold change) was 0.0000, the “Log2(fold changes) 6-phospho-D-gluconate” value (metabolite 6-phospho-D-gluconate, log2 fold change) was -0.0694 and the “Log2(fold changes) ADP-D-glucose” value (metabolite ADP-D-glucose, log2 fold change) was 0.0000. For the same molecule, the “Log2(fold changes) Acetyl-glycine” value (metabolite Acetyl-glycine, log2 fold change) was 0.0000, the “Log2(fold changes) Acetyllysine” value (metabolite Acetyllysine, log2 fold change) was -2.4239 and the “Log2(fold changes) Aminoadipic acid” value (metabolite Aminoadipic acid, log2 fold change) was 0.6779. The “Log2(fold changes) CDP” value (metabolite CDP, log2 fold change) was -0.1566, the “Log2(fold changes) CDP-choline” value (metabolite CDP-choline, log2 fold change) was 0.0000 and the “Log2(fold changes) CDP-ethanolamine” value (metabolite CDP-ethanolamine, log2 fold change) was 0.0000. For the same molecule, the “Log2(fold change) of CMP” value (metabolite CMP) was -0.4256, the “Log2(fold change) of CTP” value (metabolite CTP) was 0.0000 and the “Log2(fold changes) Citraconic acid” value (metabolite Citraconic acid, log2 fold change) was 0.0000. For the same molecule, the “Log2(fold change) of D-glucarate” value (metabolite D-glucarate) was 0.0000, the “Log2(fold change) of D-gluconate” value (metabolite D-gluconate) was 0.0000 and the “Log2(fold change) of D-glucosamine-1/6-phosphate” value (metabolite D-glucosamine-1/6-phosphate) was 0.0000. For the same molecule, the “Log2(fold change) of D-sedoheptulose-1/7-phosphate” value (metabolite D-sedoheptulose-1/7-phosphate) was 0.0894, the “Log2(fold change) of DL-Pipecolic Acid” value (metabolite DL-Pipecolic Acid) was -2.3554 and the “Log2(fold change) of DLH” value (metabolite DLH) was -3.0002. For the same molecule, the “Log2(fold change) of DLS” value (metabolite DLS) was 0.0000, the “Log2(fold change) of Decanoyl-CoA” value (metabolite Decanoyl-CoA) was 0.0000 and the “Log2(fold change) of EV” value (metabolite EV) was 0.0000. The “Log2(fold change) of FAD” value (metabolite FAD) was 0.0825, the “Log2(fold change) of FMN” value (metabolite FMN) was 0.2444 and the “Log2(fold change) of G3P/DHAP” value (metabolite G3P/DHAP) was 0.3715. For the same molecule, the “Log2(fold change) of GDP” value (metabolite GDP) was -0.4064, the “Log2(fold change) GMP” value (metabolite GMP) was -0.5023 and the “Log2(fold change) GTP” value (metabolite GTP) was 0.0000. For the same molecule, the “Log2(fold change) HVDD” value (metabolite HVDD) was 0.0000, the “Log2(fold change) Hexose” value (metabolite Hexose) was 0.5242 and the “Log2(fold change) Hydroxyisocaproic acid” value (metabolite Hydroxyisocaproic acid) was 0.0000. For the same molecule, the “Log2(fold change) IDP” value (metabolite IDP) was 0.0000, the “Log2(fold change) IMP” value (metabolite IMP) was -0.3808 and the “Log2(fold change) Inositol” value (metabolite Inositol) was 0.0000. The “Log2(fold change) Isopentyl-PP” value (metabolite Isopentyl-PP) was 0.0000, the “Log2(fold change) L-arginino-succinate” value (metabolite L-arginino-succinate) was -0.9153 and the “Log2(fold change) LD” value (metabolite LD) was 0.0782. For the same molecule, the “Log2(fold change) Myristoyl/tetradecanoyl-CoA” value (metabolite Myristoyl/tetradecanoyl-CoA) was 0.0000, the “Log2(fold change) N-Acetyl-L-alanine” value (metabolite N-Acetyl-L-alanine) was -0.8745 and the “Log2(fold change) N-acetyl-L-ornithine” value (metabolite N-acetyl-L-ornithine) was -2.0207. For the same molecule, the “Log2(fold change) N-acetyl-glucosamine-1/6-phosphate” value (metabolite N-acetyl-glucosamine-1/6-phosphate) was 0.0000, the “Log2(fold change) N-acetyl-glutamate” value (metabolite N-acetyl-glutamate) was 0.2896 and the “Log2(fold change) N-acetyl-glutamine” value (metabolite N-acetyl-glutamine) was -0.5645. For the same molecule, the “Log2(fold change) N-carbamoyl-L-aspartate” value (metabolite N-carbamoyl-L-aspartate) was -1.7487, the “Log2(fold change) NAD+” value (metabolite NAD+) was -0.0829 and the “Log2(fold change) NADH” value (metabolite NADH) was 0.7233. For the same molecule, the “Log2(fold change) NADP+” value (metabolite NADP+) was 0.2722, the “Log2(fold change) NADPH” value (metabolite NADPH) was 0.0000 and the “Log2(fold change) O-acetyl-L-serine” value (metabolite O-acetyl-L-serine) was 0.0000. For the same molecule, the “Log2(fold change) Octoluse 8/1P” value (metabolite Octoluse 8/1P) was 0.0000, the “Log2(fold change) Octoluse Bisphosphate” value (metabolite Octoluse Bisphosphate) was -0.1456 and the “Log2(fold change) PD” value (metabolite PD) was -3.3951. The “Log2(fold change) PE” value (metabolite PE) was -2.6495, the “Log2(fold change) PEE” value (metabolite PEE) was -3.0239 and the “Log2(fold change) PEEK” value (metabolite PEEK) was -4.4264. The “Log2(fold change) PVNF” value (metabolite PVNF) was -3.4246, the “Log2(fold change) Pyroglutamic acid” value (metabolite Pyroglutamic acid) was -0.3004 and the “Log2(fold change) Pyrophosphate” value (metabolite Pyrophosphate) was 0.0000. For the same molecule, the “Log2(fold change) Ribose-5-phosphate” value (metabolite Ribose-5-phosphate) was -0.0687, the “Log2(fold change) S-adenosyl-L-homocysteine” value (metabolite S-adenosyl-L-homocysteine) was -0.3299 and the “Log2(fold change) S-adenosyl-L-methioninamine” value (metabolite S-adenosyl-L-methioninamine) was 0.0000. For the same molecule, the “Log2(fold change) S-adenosyl-L-methionine” value (metabolite S-adenosyl-L-methionine) was 0.0000, the “Log2(fold change) S-methyl-5'-thioadenosine” value (metabolite S-methyl-5'-thioadenosine) was 0.0000 and the “Log2(fold change) SD” value (metabolite SD) was 0.0000. The “Log2(fold change) SDL” value (metabolite SDL) was 0.0000, the “Log2(fold change) SID” value (metabolite SID) was 0.0000 and the “Log2(fold change) Sedoheptulose bisphosphate” value (metabolite Sedoheptulose bisphosphate) was -0.0816. The “Log2(fold change) Thiamine pyrophosphate” value (metabolite Thiamine pyrophosphate) was 0.0000, the “Log2(fold changes) UDP-D-glucose” value (metabolite UDP-D-glucose, log2 fold change) was 0.1178 and the “Log2(fold changes) UDP-D-glucuronate” value (metabolite UDP-D-glucuronate, log2 fold change) was 0.0275. For the same molecule, the “Log2(fold changes) UDP-N-acetyl-glucosamine” value (metabolite UDP-N-acetyl-glucosamine, log2 fold change) was -0.1255, the “Log2(fold changes) UDP” value (metabolite UDP, log2 fold change) was -0.3330 and the “Log2(fold changes) UMP” value (metabolite UMP, log2 fold change) was -0.0965. For the same molecule, the “Log2(fold changes) UTP” value (metabolite UTP, log2 fold change) was 0.0000, the “Log2(fold changes) VD” value (metabolite VD, log2 fold change) was 0.0000 and the “Log2(fold changes) Xanthurenic acid” value (metabolite Xanthurenic acid, log2 fold change) was 0.0000. The “Log2(fold changes) a-ketoglutarate” value (metabolite a-ketoglutarate, log2 fold change) was -0.2716, the “Log2(fold changes) acetyl-CoA” value (metabolite acetyl-CoA, log2 fold change) was 0.0000 and the “Log2(fold changes) acetyl-aspartate” value (metabolite acetyl-aspartate, log2 fold change) was -0.0302. The “Log2(fold changes) acetylphosphate” value (metabolite acetylphosphate, log2 fold change) was 0.6335, the “Log2(fold changes) aconitate” value (metabolite aconitate, log2 fold change) was -0.3057 and the “Log2(fold changes) adenine” value (metabolite adenine, log2 fold change) was 0.0000. For the same molecule, the “Log2(fold changes) adenosine 5'-phosphosulfate” value (metabolite adenosine 5'-phosphosulfate, log2 fold change) was -0.0782.

Reference: publication PMC7031696 (Cell chemical biology, 2019)
